Where a name gives a salt, the structure may show the parent alone.
Target: T1, NHE-3 (Homo sapiens, UniProt P48764)
T1 sequence (P48764 26-834): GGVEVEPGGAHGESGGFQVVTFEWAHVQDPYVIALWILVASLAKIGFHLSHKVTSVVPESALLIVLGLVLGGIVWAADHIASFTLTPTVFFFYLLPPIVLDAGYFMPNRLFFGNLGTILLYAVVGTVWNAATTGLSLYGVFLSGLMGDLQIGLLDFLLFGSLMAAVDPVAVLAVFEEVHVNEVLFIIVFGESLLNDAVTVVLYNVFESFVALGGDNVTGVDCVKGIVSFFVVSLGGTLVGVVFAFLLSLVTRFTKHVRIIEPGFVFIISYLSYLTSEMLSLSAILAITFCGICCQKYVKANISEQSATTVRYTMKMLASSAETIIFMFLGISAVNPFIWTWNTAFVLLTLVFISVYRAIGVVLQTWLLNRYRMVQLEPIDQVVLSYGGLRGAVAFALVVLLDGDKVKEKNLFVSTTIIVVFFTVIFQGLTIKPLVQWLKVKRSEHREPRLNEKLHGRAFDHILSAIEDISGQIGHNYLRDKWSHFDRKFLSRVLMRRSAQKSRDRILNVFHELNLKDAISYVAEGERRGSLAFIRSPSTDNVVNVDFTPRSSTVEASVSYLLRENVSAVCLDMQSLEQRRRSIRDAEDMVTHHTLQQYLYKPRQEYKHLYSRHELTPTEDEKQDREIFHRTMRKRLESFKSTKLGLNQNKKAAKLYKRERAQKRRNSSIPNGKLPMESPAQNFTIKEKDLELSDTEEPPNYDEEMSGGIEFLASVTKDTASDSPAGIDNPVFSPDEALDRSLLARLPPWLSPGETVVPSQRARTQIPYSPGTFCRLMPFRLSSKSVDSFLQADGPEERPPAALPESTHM
Assay: Determination of the NHE-inhibitory effect (recovery of intracellular pH after acidification, BCECF fluorescence)
Type: cell-based
Conditions: pH recovery recorded for three minutes with NHE-3; BCECF-loaded cells
Protocol: Description of Assay: Determination of the NHE-Inhibitory Effect In this assay, the recovery of the intracellular pH (pHj) after an acidification which occurs even under bicarbonate-free conditions with functional NHE was determined. To this end, the pHj was determined using the pH-sensitive fluorescent dye BCECF (Calbiochem, the precursor BCECF-AM was employed). The cells were initially loaded with BCECF. The BCECF fluorescence was determined in a ratio fluorescence spectrometer (Photon Technology International, South Brunswick, N.J., USA) with excitation wavelengths of 505 and 440 nm and an emission wavelength of 535 nm and converted into the pHj using calibration plots. The cells had been incubated in NH4Cl buffer (pH 7.4) for the BCECF loading (NH4Cl buffer: 115 mM NaCl, 20 mM NH4Cl, 5 mM KCl, 1 mM CaCl2, 1 mM MgSO4, 20 mM Hepes, 5 mM glucose, 1 mg/ml BSA; a pH of 7.4 was adjusted with 1 M NaOH). The intracellular acidification was induced by adding 975 μl of an NH4Cl-free buffer (see below) to 25 μl aliquots of the cells incubated in NH4Cl buffer. The subsequent rate of pH recovery was recorded for two minutes with NHE1, five minutes with NHE2 and three minutes with NHE-3. To calculate the inhibitory power of the tested substances, the cells were initially investigated in buffers with which there was complete or absolutely no pH recovery. For complete pH recovery (100%), the cells were incubated in Na^+-containing buffer (133.8 mM NaCl, 4.7 mM KCl, 1.25 mM CaCl2, 1.25 mM MgCl2, 0.97 mM Na2HPO4, 0.23 mM NaH2PO4, 5 mM Hepes, 5 mM glucose, a pH of 7.0 was adjusted with 1 M NaOH). To determine the 0% value, the cells were incubated in an Na^+-free buffer (133.8 mM choline chloride, 4.7 mM KCl, 1.25 mM CaCl2, 1.25 mM MgCl2, 0.97 mM K2HPO4, 0.23 mM KH2PO4, 5 mM Hepes, 5 mM glucose, a pH of 7.0 was adjusted with 1 M NaOH). The substances to be tested were made up in the Na^+-containing buffer. The recovery of the intracellular pH at each tested concentration of a substance was expressed as a percentage of the maximum recovery. The IC50 of the respective substance for the individual NHE subtypes was calculated from the percentages of pH recovery using the Sigma Plot program.

Structure (SMILES)	IC50
NC1=Nc2ccc(Cl)cc2C(c2ccc(N)cc2)C1 (stereo not shown) [Example 1, 2-Amino-4-(4-aminophenyl)-6-chloro-3,4-dihydroquinoline hydrochloride]	4.39 µM
CCNC1=Nc2ccc(Cl)cc2C(c2ccc(N)cc2)C1 (stereo not shown) [Example 2, 4-(4-Aminophenyl)-6-chloro-2-ethylamino-3,4-dihydroquinoline hydrochloride]	10.9 µM
CCN(CC)C1=Nc2ccc(Cl)cc2C(c2ccc(N)cc2)C1 (stereo not shown) [Example 3, 4-(4-Aminophenyl)-6-chloro-2-diethylamino-3,4-dihydroquinoline hydrochloride]	9.19 µM
CCN(CC)C1=Nc2ccc(Cl)cc2C(c2ccc(NC(=O)NCCN(C)C)cc2)C1 (stereo not shown) [Example 4, N-(2-Dimethylaminoethyl)-N′-4-[(6-chloro-3,4-dihydro-2-diethyl-aminoquinolin-4-yl)phenyl]urea hydrochloride]	13.8 µM

Reference: patent publication US8106204B2, “Substituted 2-amino-4-phenyldihydroquinolines, processes for their preparation, pharmaceutical compositions and methods for their use” (Sanofi-Aventis, priority 2006, dated 2012)
